This note sets out measurements from patent EP2226323A1, “New tetrahydropyrazolo[3,4-c]isoquinolin-5-amine derivatives” (Almirall, S.A., priority 2009, dated 2010).

In the assay the target is recombinant PDE4 enzyme. As to the kind of experiment: PDE4 assay: [3H] cAMP Scintillation Proximity Assay (SPA) of phosphodiesterase activity. The note with it: yeast extract of recombinant PDE4 enzyme; 30 nM [3H] cAMP; 1 hr at room temperature; pH 7.5. It is filed as biochemical. The procedure:
Measurement of Phosphodiesterase Activity was done using a [3H] cAMP Scintillation Proximity Assay (SPA) (GE Healthcare). Compounds to be tested were dissolved in DMSO at a stock concentration of 1 mM and serial dilutions were prepared in 50% DMSO to determine IC50s. The reactions were conducted in 96-well plates (Corning, Ref.3604) at room temperature, in 0.1 ml of reaction buffer containing (final concentrations): 50 mM Tris-HCl, pH 7.5, 8.3 mM MgCl2, 1.7 mM EGTA, 30 nM [3H] cAMP (approximately 150000 dpm/well) with or without the inhibitors. The reaction was initiated by adding yeast extract of recombinant PDE4 enzyme. Plates were shaken for 1 hr at room temperature and the incubation was terminated by adding 50 µl (0.5 mg /well) of SPA yttrium silicate beads (RPNQ 0150; GE Healthcare) in the presence of zinc sulfate. Plates were stored overnight in the dark and read on a TRILUX microtiter plate reader (Perkin Elmer).
(SPA uses beads or plates that emit light when radiolabelled molecules are held near them.)

As to `CC1(C)CCc2c(Nc3c(Cl)cncc3Cl)nc3[nH]nc(O)c3c2C1` [Example 1, 5-(3,5-Dichloropyridin-4-ylamino)-8,8-dimethyl-6,7,8,9-tetrahydro-3H-pyrazolo[3,4-c]isoquinolin-1-ol], the half-maximal inhibitory concentration (IC50) (as a rule, the concentration needed to halve the response being measured) came out at 3.9 nM. In the case of `CC1(C)CCc2c(Nc3c(Cl)cncc3Cl)nc3[nH]nc(N)c3c2C1` [Example 2, N^5-(3,5-Dichloropyridin-4-yl)-8,8-dimethyl-6,7,8,9-tetrahydro-3H-pyrazolo[3,4-c]isoquinoline-1,5-diamine], the IC50 is 62 nM. As to `CN(C)C(=O)c1cccc(S(=O)(=O)n2nc(O)c3c4c(c(Nc5c(Cl)cncc5Cl)nc32)CCC(C)(C)C4)c1` [Example 3, 3-(5-(3,5-Dichloropyridin-4-ylamino)-1-hydroxy-8,8-dimethyl-6,7,8,9-tetrahydro-3H-pyrazolo[3,4-c]isoquinolin-3-ylsulfonyl)-N, N-dimethylbenzamide], the IC50 came to 16.8 nM. Under `COc1cccc(Cn2nc(O)c3c4c(c(Nc5c(Cl)cncc5Cl)nc32)CCC(C)(C)C4)c1` [Example 4, 5-(3,5-Dichloropyridin-4-ylamino)-3-(3-methoxybenzyl)-8,8-dimethyl-6,7,8,9-tetrahydro-3H-pyrazolo[3,4-c]isoquinolin-1-ol] stands 11 nM; under `Cn1nc(O)c2c3c(c(Nc4c(Cl)cncc4Cl)nc21)CCC(C)(C)C3` [Example 5, 5-(3,5-Dichloropyridin-4-ylamino)-3,8,8-trimethyl-6,7,8,9-tetrahydro-3H-pyrazolo[3,4-c]isoquinolin-1-ol], 17.1 nM. For the compound `CC1(C)CCc2c(Nc3c(Cl)cncc3Cl)nc3c(c(O)nn3Cc3cccc(C(=O)O)c3)c2C1` [Example 7, 3-((5-(3,5-Dichloropyridin-4-ylamino)-1-hydroxy-8,8-dimethyl-6,7,8,9-tetrahydro-3H-pyrazolo[3,4-c]isoquinolin-3-yl)methyl)benzoic acid], the IC50 came to 3.1 nM. For the compound `CC1(C)CCc2c(Nc3c(Cl)cncc3Cl)nc3c(c(O)nn3Cc3cccnc3)c2C1` [Example 8, 5-(3,5-Dichloropyridin-4-ylamino)-8,8-dimethyl-3-(pyridin-3-ylmethyl)-6,7,8,9-tetrahydro-3H-pyrazolo[3,4-c]isoquinolin-1-ol], the concentration for half-maximal inhibition (IC50) turned out to be 7.4 nM.

For the compound `CC1(C)CCc2c(Nc3c(Cl)cncc3Cl)nc3c(c(O)nn3CC(N)=O)c2C1` [Example 9, 2-(5-(3,5-Dichloropyridin-4-ylamino)-1-hydroxy-8,8-dimethyl-6,7,8,9-tetrahydro-3H-pyrazolo[3,4-c]isoquinolin-3-yl)acetamide], the 50% inhibitory concentration (IC50) amounted to 18.8 nM.

Consider `CC1(C)CCc2c(Nc3c(Cl)cncc3Cl)nc3c(c(O)nn3Cc3cccc(C(N)=O)c3)c2C1` [Example 10, 3-((5-(3,5-Dichloropyridin-4-ylamino)-1-hydroxy-8,8-dimethyl-6,7,8,9-tetrahydro-3H-pyrazolo[3,4-c]isoquinolin-3-yl)methyl)benzamide], for which the 50% inhibitory concentration (IC50) turned out to be 2.3 nM. With `CC1(C)CCc2c(Nc3c(Cl)cncc3Cl)nc3c(c(O)nn3Cc3ccc(C(=O)O)cc3)c2C1` [Example 12, 4-((5-(3,5-Dichloropyridin-4-ylamino)-1-hydroxy-8,8-dimethyl-6,7,8,9-tetrahydro-3H-pyrazolo[3,4-c]isoquinolin-3-yl)methyl)benzoic acid], the IC50 was found to be 2.4 nM. Under `CC1(C)CCc2c(Nc3c(Cl)cncc3Cl)nc3c(c(O)nn3Cc3cccc(C#N)c3)c2C1` [Example 13, 3-((5-(3,5-Dichloropyridin-4-ylamino)-1-hydroxy-8,8-dimethyl-6,7,8,9-tetrahydro-3H-pyrazolo[3,4-c]isoquinolin-3-yl)methyl)benzonitrile] stands 2.35 nM; under `CC1(C)CCc2c(Nc3c(Cl)cncc3Cl)nc3c(c(O)nn3Cc3ccc(C(N)=O)cc3)c2C1` [Example 14, 4-((5-(3,5-Dichloropyridin-4-ylamino)-1-hydroxy-8,8-dimethyl-6,7,8,9-tetrahydro-3H-pyrazolo[3,4-c]isoquinolin-3-yl)methyl)benzamide], 5.17 nM. Regarding `CC1(C)CCc2c(Nc3c(Cl)cncc3Cl)nc3c(c(O)nn3CCCN3CCOCC3)c2C1` [Example 15, 5-(3,5-Dichloropyridin-4-ylamino)-8,8-dimethyl-3-(3-morpholinopropyl)-6,7,8,9-tetrahydro-3H-pyrazolo[3,4-c]isoquinolin-1-ol], the concentration for half-maximal inhibition (IC50) worked out at 6.14 nM. As for `CC1(C)CCc2c(Nc3c(Cl)cncc3Cl)nc3c(c(O)nn3CCCc3cccc(C#N)c3)c2C1` [Example 16, 3-(3-(5-(3,5-Dichloropyridin-4-ylamino)-1-hydroxy-8,8-dimethyl-6,7,8,9-tetrahydro-3H-pyrazolo[3,4-c]isoquinolin-3-yl)propyl)benzonitrile], the 50% inhibitory concentration (IC50) is 15.5 nM. Take `CC1(C)CCc2c(Nc3c(Cl)cncc3Cl)nc3c(c(O)nn3CCCc3cccc(C(N)=O)c3)c2C1` [Example 17, 3-(3-(5-(3,5-Dichloropyridin-4-ylamino)-1-hydroxy-8,8-dimethyl-6,7,8,9-tetrahydro-3H-pyrazolo[3,4-c]isoquinolin-3-yl)propyl)benzamide]: the IC50 amounted to 2.1 nM. The result for “Methyl 3-((5-(3,5-dichloropyridin-4-ylamino)-1-hydroxy-8,8-dimethyl-6,7,8,9-tetrahydro-3H-pyrazolo[3,4-c]isoquinolin-3-yl)methyl)benzoate [Example 6]” reads 2 nM.
